The nature of assay [1]: viability of PTEN-deleted HCT116 cells – cell-based, HCT116 PTEN knockout, dose response (AID 1047).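 Also: HCT116 colon tumor cells with PTEN knocked out; cells exposed to compound for 60 hours before readout; potency for loss of cell viability measured by luminescence.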 It counts as functional.
The target in assay [2] is Protein-tyrosine kinase 2-beta (Homo sapiens, UniProt Q14289).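 Also: potency of inhibitors of PYK2 kinase phosphorylation of poly-GT substrate.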
Assay [3] can be described thus: viability of HCT116 lacking mutant beta-catenin – cell-based, human colon tumor, dose response (AID 1045).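 Also: HCT116 colon tumor cells with beta catenin knocked out; cells exposed to compound for 60 hours.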 The class given is functional.
Assay [4] is described as follows: Luminescence Cell-Based Dose Response to Identify Activators of 5'UTR Stem-Loop Driven Prion Protein mRNA Translation in H4-C Neuroglioblastoma Cells. [Related pubchem assays: 1829 (Project Summary), 1814 (Primary HTS)]. The class given is functional.
Assay [5] can be described thus: Luminescence Cell-Based Dose Response HTS to Identify Activators of Luciferase Translation or Activity in H4 […] Cells. [Related pubchem assays: 1829 (Project Summary), 1814 (Primary HTS)]. The class given is functional.
In assay [6] the test system is H4. Nature of the assay: Luminescence Cell-Based Dose Response HTS to Identify Activators of 5'UTR Stem-Loop Driven Prion Protein mRNA Translation in H4 Neuroglioblastoma Cells. [Related pubchem assays: 1829 (Project Summary), 1814 (Primary HTS)]. It counts as functional. Conditions: Homo sapiens.
Assay [7] in a line: Luminescence Cell-Based Dose Response to Identify Activators of Luciferase Translation or Activity in H4-C Neuroglioblastoma Cells. [Related pubchem assays: 1829 (Project Summary), 1814 (Primary HTS)]. It counts as functional.
A short description of assay [8]: Luminescence Cell-Based Dose Confirmation to Identify Activators of 5'UTR Stem-Loop Driven Alpha-Synuclein mRNA Translation in H4 Neuroglioblastoma Cells. [Related pubchem assays: 1829 (Project Summary), 1814 (Primary HTS)]. The class given is functional.
Assay [9] concerns the target T1, Estrogen receptor (Homo sapiens, UniProt P03372).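 Also: potency for inhibiting coactivator peptide recruitment to the receptor.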
T1 sequence (P03372 whole entry): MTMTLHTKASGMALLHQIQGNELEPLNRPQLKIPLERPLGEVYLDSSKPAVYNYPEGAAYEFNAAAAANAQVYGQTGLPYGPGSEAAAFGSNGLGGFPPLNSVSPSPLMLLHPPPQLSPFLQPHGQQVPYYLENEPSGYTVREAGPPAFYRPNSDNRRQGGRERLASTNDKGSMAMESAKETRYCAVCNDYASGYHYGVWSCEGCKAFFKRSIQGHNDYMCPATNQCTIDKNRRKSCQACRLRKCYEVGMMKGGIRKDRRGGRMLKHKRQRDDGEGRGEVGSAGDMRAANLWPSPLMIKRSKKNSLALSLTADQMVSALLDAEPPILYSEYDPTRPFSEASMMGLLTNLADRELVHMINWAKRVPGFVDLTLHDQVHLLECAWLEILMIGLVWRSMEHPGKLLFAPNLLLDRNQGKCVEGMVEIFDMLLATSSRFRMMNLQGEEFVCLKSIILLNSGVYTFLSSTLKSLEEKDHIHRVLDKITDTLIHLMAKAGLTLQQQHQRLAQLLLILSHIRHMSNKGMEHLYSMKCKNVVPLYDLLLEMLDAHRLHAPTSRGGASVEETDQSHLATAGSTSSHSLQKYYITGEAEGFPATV

The test system of assay [10] is Vero. As to the kind of experiment: mammalian cell viability reduction – secondary assay, cytotoxicity control for West Nile virus antiviral project, dose response (AID 1650). Conditions: Chlorocebus sabaeus. The class given is functional.
The nature of assay [11]: HPDE-C7 pancreatic duct cell viability loss – fluorescence, HTS (AID 430). It counts as functional, cell-based. Conditions: Homo sapiens.
Assay [12] in a line: viability loss of HPDE-C7K cells – cell-based, fluorescence, HTS, primary screen (AID 431). The class given is functional. Conditions: Homo sapiens.
Assay [13] deals with T2, Endoribonuclease toxin MazF (Escherichia coli K-12, UniProt P0AE70).
T2 sequence (P0AE70 whole entry): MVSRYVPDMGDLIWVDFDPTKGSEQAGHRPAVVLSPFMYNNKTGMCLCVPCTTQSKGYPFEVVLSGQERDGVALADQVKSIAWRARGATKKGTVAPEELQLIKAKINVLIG
Nature of the assay: activation of MazEF endoribonuclease cleavage – biochemical, fluorescence, single-stranded RNA substrate, uHTS hits, dose response (AID 588481). The class given is functional.

Assay [14] concerns the target T2, Endoribonuclease toxin MazF. Nature of the assay: substrate-only fluorescence increase artefacts – biochemical, single-stranded RNase substrate, counter-screen for MazEF activator project, dose response (AID 588502). The class given is functional.
The target in assay [15] is T3, Protein Rev (Human immunodeficiency virus type 1 group M subtype B (isolate WMJ22)(HIV-1), UniProt P05866).
T3 sequence (P05866 whole entry): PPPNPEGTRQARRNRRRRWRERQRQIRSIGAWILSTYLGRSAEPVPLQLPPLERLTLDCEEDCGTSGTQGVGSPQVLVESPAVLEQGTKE
Nature of the assay: inhibitors of Rev protein–RRE RNA complex – biochemical, protein-RNA interaction, dose response (AID 842). Also noted: species or system Human immunodeficiency virus 1.

The target of assay [16] is DNA dC->dU-editing enzyme APOBEC-3G (Homo sapiens, UniProt Q9HC16). Nature of the assay: Dose Response confirmation of small molecule APOBEC3G DNA Deaminase Inhibitors via a fluorescence-based single-stranded DNA deaminase assay. [Related pubchem assays (depositor defined):AID493012, AID493028]. The class given is functional.
In assay [17] the target is T4, Carboxy-terminal domain RNA polymerase II polypeptide A small phosphatase 1 (Homo sapiens, UniProt Q9GZU7).
T4 sequence (Q9GZU7 whole entry): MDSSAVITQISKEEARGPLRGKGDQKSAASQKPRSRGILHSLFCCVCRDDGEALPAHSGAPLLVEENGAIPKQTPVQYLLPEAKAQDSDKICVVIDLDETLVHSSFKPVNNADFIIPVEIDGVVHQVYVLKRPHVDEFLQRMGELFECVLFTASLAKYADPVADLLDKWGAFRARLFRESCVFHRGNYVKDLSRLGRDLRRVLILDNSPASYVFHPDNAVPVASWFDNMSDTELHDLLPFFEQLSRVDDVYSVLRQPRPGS
Nature of the assay: CTDSP1 inhibitors, concentration-response, biochemical, absorbance readout, ultra-high-throughput screen actives (AID 540297). It counts as functional.

Assay [18] addresses T5, Low molecular weight phosphotyrosine protein phosphatase (Homo sapiens, UniProt P24666).
T5 sequence (P24666 whole entry): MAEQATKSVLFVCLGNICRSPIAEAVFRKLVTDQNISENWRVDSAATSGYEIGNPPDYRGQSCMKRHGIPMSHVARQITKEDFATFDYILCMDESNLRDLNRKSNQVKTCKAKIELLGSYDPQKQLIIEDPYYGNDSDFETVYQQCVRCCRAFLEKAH
The class given is functional. Conditions: read-out: IC50_Mean.

For assay [19], the target named is T5, Low molecular weight phosphotyrosine protein phosphatase. It counts as functional. Conditions: read-out: IC50_Mean. This is another data set of the same source.
Assay [20] can be described thus: Trypanosoma cruzi growth suppression in host cells – NIH3T3 host cells, beta-gal luminescence, confirmation (AID 2044).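 Also: intracellular parasites grown in NIH/3T3 mouse fibroblasts as host cells; luminescent beta-galactosidase reporter signal from transgenic T. cruzi replicating inside host cells; inhibitors lower the luminescence signal.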 The class given is functional, cell-based.
The target in assay [21] is T6, Calpain-2 catalytic subunit (Sus scrofa, UniProt P43367).
T6 sequence (P43367 whole entry): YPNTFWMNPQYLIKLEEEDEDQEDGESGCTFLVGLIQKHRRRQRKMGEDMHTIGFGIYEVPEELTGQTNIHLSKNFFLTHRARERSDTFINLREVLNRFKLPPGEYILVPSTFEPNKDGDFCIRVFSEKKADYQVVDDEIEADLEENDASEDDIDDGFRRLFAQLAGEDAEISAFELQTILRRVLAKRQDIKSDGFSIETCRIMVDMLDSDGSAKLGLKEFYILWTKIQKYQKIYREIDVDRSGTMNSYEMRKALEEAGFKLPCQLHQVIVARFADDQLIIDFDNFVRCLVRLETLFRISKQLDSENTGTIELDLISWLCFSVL
As to the kind of experiment: m-calpain protease blockers, concentration series – biochemical, fluorogenic peptide substrate, dose response (AID 1420). It counts as functional.

Assay [22] addresses T7, High affinity choline transporter 1 (Homo sapiens, UniProt Q9GZV3).
T7 sequence (Q9GZV3 whole entry): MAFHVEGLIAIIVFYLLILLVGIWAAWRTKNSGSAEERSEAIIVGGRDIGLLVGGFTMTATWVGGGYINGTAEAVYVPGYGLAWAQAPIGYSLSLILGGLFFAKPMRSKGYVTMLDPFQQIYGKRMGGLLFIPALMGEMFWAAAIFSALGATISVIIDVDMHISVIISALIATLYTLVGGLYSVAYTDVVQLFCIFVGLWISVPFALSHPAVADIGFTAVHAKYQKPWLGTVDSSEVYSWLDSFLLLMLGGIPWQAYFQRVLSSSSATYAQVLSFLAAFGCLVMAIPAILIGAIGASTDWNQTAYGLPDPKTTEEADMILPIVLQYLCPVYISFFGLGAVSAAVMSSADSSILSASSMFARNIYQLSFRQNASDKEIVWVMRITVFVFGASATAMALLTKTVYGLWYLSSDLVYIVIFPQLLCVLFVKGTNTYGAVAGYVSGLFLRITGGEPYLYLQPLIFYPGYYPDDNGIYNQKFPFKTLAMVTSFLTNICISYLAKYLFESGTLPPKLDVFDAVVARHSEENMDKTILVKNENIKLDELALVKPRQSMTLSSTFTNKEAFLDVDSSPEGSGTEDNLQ
As to the kind of experiment: human choline transporter blockers, potency – cell-based, 5-point CRC, membrane potential dye, dose response (AID 504840). It counts as functional.

Structures are written as SMILES. Calls of active or inactive are those of the source.

Sequence of Protein-tyrosine kinase 2-beta (Q14289 whole entry): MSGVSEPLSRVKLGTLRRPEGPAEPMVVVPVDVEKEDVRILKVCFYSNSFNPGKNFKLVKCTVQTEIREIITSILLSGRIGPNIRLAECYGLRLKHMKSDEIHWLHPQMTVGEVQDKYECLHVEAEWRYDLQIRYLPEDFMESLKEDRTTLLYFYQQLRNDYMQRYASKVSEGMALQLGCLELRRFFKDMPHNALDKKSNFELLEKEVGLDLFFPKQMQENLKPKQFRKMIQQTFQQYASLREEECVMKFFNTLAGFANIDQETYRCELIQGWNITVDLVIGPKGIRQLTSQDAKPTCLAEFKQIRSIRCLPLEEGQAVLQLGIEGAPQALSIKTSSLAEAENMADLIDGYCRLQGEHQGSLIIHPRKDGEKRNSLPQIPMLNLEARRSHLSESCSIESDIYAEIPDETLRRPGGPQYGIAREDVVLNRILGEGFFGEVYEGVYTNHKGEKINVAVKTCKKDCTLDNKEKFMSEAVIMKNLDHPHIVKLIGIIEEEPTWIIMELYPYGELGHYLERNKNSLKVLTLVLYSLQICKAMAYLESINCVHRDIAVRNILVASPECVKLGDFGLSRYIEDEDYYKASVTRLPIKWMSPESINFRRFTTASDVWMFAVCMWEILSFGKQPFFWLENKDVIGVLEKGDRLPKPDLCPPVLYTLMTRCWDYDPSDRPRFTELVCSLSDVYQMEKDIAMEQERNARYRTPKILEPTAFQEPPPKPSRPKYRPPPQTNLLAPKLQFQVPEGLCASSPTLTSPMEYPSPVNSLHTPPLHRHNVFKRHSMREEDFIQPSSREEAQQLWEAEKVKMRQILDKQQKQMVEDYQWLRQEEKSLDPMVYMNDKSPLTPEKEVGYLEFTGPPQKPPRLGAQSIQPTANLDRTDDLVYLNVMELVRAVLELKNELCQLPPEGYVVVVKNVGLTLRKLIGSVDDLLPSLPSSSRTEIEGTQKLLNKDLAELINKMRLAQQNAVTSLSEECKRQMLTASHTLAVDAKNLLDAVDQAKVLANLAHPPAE
Sequence of DNA dC->dU-editing enzyme APOBEC-3G (Q9HC16 whole entry, the tested form may be a part): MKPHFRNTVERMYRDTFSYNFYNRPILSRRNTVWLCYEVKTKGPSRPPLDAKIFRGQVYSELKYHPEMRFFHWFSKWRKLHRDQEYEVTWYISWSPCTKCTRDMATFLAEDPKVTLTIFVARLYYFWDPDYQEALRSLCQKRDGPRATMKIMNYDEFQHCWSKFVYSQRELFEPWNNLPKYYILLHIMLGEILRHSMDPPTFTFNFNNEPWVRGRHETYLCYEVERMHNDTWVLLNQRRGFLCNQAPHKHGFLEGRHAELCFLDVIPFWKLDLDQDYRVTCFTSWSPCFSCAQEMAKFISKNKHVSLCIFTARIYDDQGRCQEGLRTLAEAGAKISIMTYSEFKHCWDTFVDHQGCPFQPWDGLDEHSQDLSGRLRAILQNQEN

Turning to `N#Cc1cccc(NC(=O)CSc2ccc3c4c(cccc24)C(=O)c2ccccc2-3)c1`, the concentration for a half-maximal effect (EC50) was 15.3 µM (active) in assay [1] and 19.6 µM (active) in assay [3]. Moreover, the IC50 in assay [2] is 4.87 µM (active).

`Cc1ccc(Sc2c(CO)c(-c3ccccc3)nn2C)cc1`: the EC50 in [4] is 1.37 µM (inconclusive); in assay [5] it was > 120 µM (not active); in assay [6], > 120 µM (not active); in assay [7] it was > 3.8 µM (not active); in [8], 0.658 µM (inconclusive).

Regarding `O=C1CC(/C=C/c2ccco2)=Nc2ccccc2N1`, in [9], the IC50 was > 50 µM (not active).

`CCOc1ccc(/C=C2\SC(=S)N(CCC(=O)N(CCO)c3ccccc3)C2=O)cc1`: the half-maximal cytotoxic concentration (CC50) in assay [10] was 33.5 µM (active).

Regarding `CCN(CC)c1nc2ccccc2nc1C(C#N)C(=O)NCCc1ccccc1` (stereo not given), the EC50 in assay [11] was > 20 µM (not active); in assay [12], > 20 µM (not active); in [13], > 99 µM (inactive); in assay [14] it was > 99 µM (inactive).

`COC(=O)c1ccc(CSc2nc(C)nc3sc(C)c(C)c23)o1`: the IC50 in assay [9] is on record as 48.9 µM (not active).

Take `Cc1ccc(C(=O)NNC(=O)CSc2n[nH]c3c4cc(F)ccc4nc-3n2)cc1`: the IC50 was > 79.4 µM (not active) in assay [15]; 5.25 µM (active) in assay [2]; 28.6 µM (active) in assay [16]; 5.22 µM (active) in assay [17]; 14.6 µM (active) in assay [18]; 17.5 µM (active) in assay [19].

On to `CCCCN(CCCC)S(=O)(=O)c1ccc(NC(=O)c2ccc([N+](=O)[O-])cc2Cl)cc1`, for which the CC50 in [10] was 10.1 µM (active). The EC50 in [20] is 0.798 µM (active). Besides, the IC50 is 1.42 µM (not active) in [21] and 12.6 µM (active) in assay [22].

The values above are taken from ChEMBL document CHEMBL1201862, “PubChem BioAssay data set” (2004).
